In the NIST ThermoML archive (doi:10.1021/acs.jced.8b00135):
± gives the expanded uncertainty stated by the source.

Key:
[1] = refractive index (Na D-line) (dimensionless); details: 96.5 kPa, Liquid, Standard Abbe refractometry
[2] = 96.5 kPa, Liquid, Capillary tube (Ostwald / Ubbelohde) method

Cc1ccccc1O [2-methylphenol]
Details	refractive index, 288.15 K	refractive index, 293.15 K	refractive index, 298.15 K	refractive index, 303.15 K	refractive index, 308.15 K	viscosity, 288.15 K [mPa·s]	viscosity, 293.15 K [mPa·s]	viscosity, 298.15 K [mPa·s]	viscosity, 303.15 K [mPa·s]	viscosity, 308.15 K [mPa·s]
[1]	1.5407 ± 0.008	1.5392 ± 0.008	1.5382 ± 0.008	1.5362 ± 0.008	1.5336 ± 0.008	–	–	–	–	–
[2]	–	–	–	–	–	13.28 ± 0.31	9.68 ± 0.23	7.76 ± 0.17	6.575 ± 0.15	5.566 ± 0.12
